# Laboratory results reported in patent publication US8044079B2, “Substituted oxindole derivatives, medicaments containing said derivatives and use thereof” (Abbott GmbH & Co. KG, priority 2005, dated 2011).
# Molecular target: T1, human vasopressin V1b receptor (Homo sapiens, UniProt P47901)
# T1 construct: expressed in transfected cells; host or cells: CHO-K1 (cell line hV1b_3H2_CHO), membrane preparation
# T1 sequence (P47901 1-424): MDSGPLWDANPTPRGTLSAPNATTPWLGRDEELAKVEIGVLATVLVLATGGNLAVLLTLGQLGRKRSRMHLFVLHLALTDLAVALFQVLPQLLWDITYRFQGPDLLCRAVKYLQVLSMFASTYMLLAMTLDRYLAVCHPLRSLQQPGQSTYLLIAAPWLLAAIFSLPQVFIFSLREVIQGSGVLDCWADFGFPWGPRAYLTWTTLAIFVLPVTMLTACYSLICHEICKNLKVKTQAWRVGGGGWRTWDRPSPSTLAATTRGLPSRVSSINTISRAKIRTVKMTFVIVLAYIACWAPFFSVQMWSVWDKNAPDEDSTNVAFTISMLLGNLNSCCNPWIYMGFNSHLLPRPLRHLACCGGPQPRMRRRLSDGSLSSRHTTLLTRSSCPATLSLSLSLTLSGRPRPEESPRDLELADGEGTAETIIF
# Assay: Vasopressin V1b receptor binding test
# Details: membranes of CHO-K1 cells with human V1b receptor, displacement of 1.5 nM 3H-AVP; for compounds with more than one stereogenic center the diastereomer with greater affinity
# Summary of the method: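 Radioligand displacement on membranes carrying human V1b receptor in 50 mM tris, 10 mM MgCl2, 0.1% BSA, pH 7.4, 2% DMSO final; 60 min at room temperature, nonspecific binding with 1 μM AVP. Free ligand removed by filtration, bound counted by liquid scintillation, Ki from nonlinear regression of triplicates.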
row,SMILES,Ki [nM]
1,"COc1ccc(S(=O)(=O)N2C(=O)C(c3cccc(CN4CCN(C)CC4)c3OC)(N3CCC[C@H]3c3ncco3)c3cc(Cl)ccc32)cc1 (stereo partly drawn) [Example 192, 5-Chloro-1-(4-methoxybenzenesulfonyl)-3-[2-methoxy-3-(4-methylpiperazin-1-ylmethyl)phenyl]-3-((S)-2-oxazol-2-yl-pyrrolidin-1-yl)-1,3-dihydroindol-2-one]",< 10
2,"CCN1CCN(Cc2ccc(C3(N4CCC[C@H]4c4ncco4)C(=O)N(S(=O)(=O)c4ccc(OC)cc4)c4cc(F)c(Cl)cc43)c(OC)c2)CC1 (stereo partly drawn) [Example 193, 5-Chloro-3-[4-(4-ethylpiperazin-1-ylmethyl)-2-methoxyphenyl]-6-fluoro-1-(4-methoxybenzenesulfonyl)-3-((S)-2-oxazol-2-yl-pyrrolidin-1-yl)-1,3-dihydroindol-2-one]",< 10
3,"COc1ccc(S(=O)(=O)N2C(=O)C(c3cccc(CN(C)C)c3OC)(N3CCC[C@H]3c3ncco3)c3cc(Cl)ccc32)cc1 (stereo partly drawn) [Example 194, 5-Chloro-3-(3-dimethylaminomethyl-2-methoxyphenyl)-1-(4-methoxybenzenesulfonyl)-3-((S)-2-oxazol-2-yl-pyrrolidin-1-yl)-1,3-dihydroindol-2-one]",10 to 100
4,"COc1ccc(S(=O)(=O)N2C(=O)C(c3cccc(CN4CCCC4)c3OC)(N3CCC[C@H]3c3ncco3)c3cc(Cl)ccc32)cc1 (stereo partly drawn) [Example 195, 5-Chloro-1-(4-methoxybenzenesulfonyl)-3-(2-methoxy-3-pyrrolidin-1-ylmethylphenyl)-3-((S)-2-oxazol-2-yl-pyrrolidin-1-yl)-1,3-dihydroindol-2-one]",100 to 1000
5,"COc1cc(CN2CCN(CCO)CC2)ccc1C1(N2CCC[C@H]2c2ncco2)C(=O)N(S(=O)(=O)c2ccc(C#N)cc2)c2ccc(Cl)cc21 (stereo partly drawn) [Example 197, 5-Chloro-1-(4-cyanobenzenesulfonyl)-3-{4-[4-(2-hydroxyethyl)piperazin-1-ylmethyl]-2-methoxyphenyl}-3-((S)-2-oxazol-2-yl-pyrrolidin-1-yl)-2,3-dihydroindol-2-one]",10 to 100
6,"COc1ccc(S(=O)(=O)N2C(=O)C(c3cc(CN4CCN(C)CC4)ccc3OC)(N3CCC[C@H]3c3ncco3)c3cc(Cl)c(F)cc32)cc1 (stereo partly drawn) [Example 198, 5-Chloro-6-fluoro-1-(4-methoxybenzenesulfonyl)-3-[2-methoxy-5-(4-methylpiperazin-1-ylmethyl)phenyl]-3-((S)-2-oxazol-2-yl-pyrrolidin-1-yl)-1,3-dihydroindol-2-one]",< 10
7,"CCN1CCN(Cc2ccc(C3(N4CCC[C@H]4c4ncco4)C(=O)N(S(=O)(=O)c4ccc(OC)cc4)c4ccc(Cl)c(F)c43)c(OC)c2)CC1 (stereo partly drawn) [Example 199, 5-Chloro-3-[4-(4-ethylpiperazin-1-ylmethyl)-2-methoxyphenyl]-4-fluoro-1-(4-methoxybenzenesulfonyl)-3-((S)-2-oxazol-2-yl-pyrrolidin-1-yl)-1,3-dihydroindol-2-one]",< 10
8,"COc1ccc(S(=O)(=O)N2C(=O)C(c3cc(CN4CCNCC4)ccc3OC)(N3CCC[C@H]3c3ncco3)c3cc(Cl)c(F)cc32)cc1 (stereo partly drawn) [Example 200, 5-Chloro-6-fluoro-1-(4-methoxybenzenesulfonyl)-3-(2-methoxy-5-piperazin-1-ylmethylphenyl)-3-((S)-2-oxazol-2-yl-pyrrolidin-1-yl)-1,3-dihydroindol-2-one]",< 10
9,"COc1ccc(S(=O)(=O)N2C(=O)C(c3ccc(CN4CCN(C)CC4)cc3OC)(N3CCC[C@H]3c3ncco3)c3cc(Cl)c(F)cc32)cc1 (stereo partly drawn) [Example 201, 5-Chloro-6-fluoro-1-(4-methoxybenzenesulfonyl)-3-[2-methoxy-4-(4-methylpiperazin-1-ylmethyl)phenyl]-3-((S)-2-oxazol-2-yl-pyrrolidin-1-yl)-1,3-dihydroindol-2-one]",< 10
10,"CCOc1ccc(CN2CCN(C)CC2)cc1C1(N2CCC[C@H]2c2ncco2)C(=O)N(S(=O)(=O)c2ccc(OC)cc2)c2ccc(Cl)cc21 (stereo partly drawn) [Example 202, 5-Chloro-3-[2-ethoxy-5-(4-methylpiperazin-1-ylmethyl)phenyl]-1-(4-methoxybenzenesulfonyl)-3-((S)-2-oxazol-2-yl-pyrrolidin-1-yl)-1,3-dihydroindol-2-one]",10 to 100
11,"CCOc1ccc(CNC)cc1C1(N2CCC[C@H]2c2ncco2)C(=O)N(S(=O)(=O)c2ccc(OC)cc2)c2ccc(Cl)cc21 (stereo partly drawn) [Example 203, 5-Chloro-3-(2-ethoxy-5-methylaminomethylphenyl)-1-(4-methoxybenzenesulfonyl)-3-((S)-2-oxazol-2-yl-pyrrolidin-1-yl)-1,3-dihydroindol-2-one]",10 to 100
12,"CCOc1ccc(CN(C)C)cc1C1(N2CCC[C@H]2c2ncco2)C(=O)N(S(=O)(=O)c2ccc(OC)cc2)c2ccc(Cl)cc21 (stereo partly drawn) [Example 204, 5-Chloro-3-(5-dimethylaminomethyl-2-ethoxyphenyl)-1-(4-methoxybenzenesulfonyl)-3-((S)-2-oxazol-2-yl-pyrrolidin-1-yl)-1,3-dihydroindol-2-one]",10 to 100
13,"CCOc1ccc(CNC(C)C)cc1C1(N2CCC[C@H]2c2ncco2)C(=O)N(S(=O)(=O)c2ccc(OC)cc2)c2ccc(Cl)cc21 (stereo partly drawn) [Example 205, 5-Chloro-3-[2-ethoxy-5-(isopropylaminomethyl)phenyl]-1-(4-methoxybenzenesulfonyl)-3-((S)-2-oxazol-2-yl-pyrrolidin-1-yl)-1,3-dihydroindol-2-one]",10 to 100
14,"CCNCc1ccc(OCC)c(C2(N3CCC[C@H]3c3ncco3)C(=O)N(S(=O)(=O)c3ccc(OC)cc3)c3ccc(Cl)cc32)c1 (stereo partly drawn) [Example 206, 5-Chloro-3-(2-ethoxy-5-ethylaminomethylphenyl)-1-(4-methoxybenzenesulfonyl)-3-((S)-2-oxazol-2-yl-pyrrolidin-1-yl)-1,3-dihydroindol-2-one]",10 to 100
15,"COc1ccc(S(=O)(=O)N2C(=O)C(c3cc(CN4CCN(C)CC4)ccc3OC)(N3CCC[C@H]3c3ncon3)c3cc(Cl)ccc32)cc1 (stereo partly drawn) [Example 207, 5-Chloro-1-(4-methoxybenzenesulfonyl)-3-[2-methoxy-5-(4-methylpiperazin-1-ylmethyl)phenyl]-3-((S)-2-[1,2,4]oxadiazol-3-yl-pyrrolidin-1-yl)-1,3-dihydroindol-2-one]",< 10
16,"COc1ccc(S(=O)(=O)N2C(=O)C(c3cc(CN4CCNCC4)ccc3OC)(N3CCC[C@H]3c3ncon3)c3cc(Cl)ccc32)cc1 (stereo partly drawn) [Example 208, 5-Chloro-1-(4-methoxybenzenesulfonyl)-3-(2-methoxy-5-piperazin-1-ylmethylphenyl)-3-((S)-2-[1,2,4]oxadiazol-3-yl-pyrrolidin-1-yl)-1,3-dihydroindol-2-one]",10 to 100
17,"COc1ccc(S(=O)(=O)N2C(=O)C(c3cc(CN(C)C)ccc3OC)(N3CCC[C@H]3c3ncon3)c3cc(Cl)ccc32)cc1 (stereo partly drawn) [Example 209, 5-Chloro-3-(5-dimethylaminomethyl-2-methoxyphenyl)-1-(4-methoxybenzenesulfonyl)-3-((S)-2-[1,2,4]oxadiazol-3-yl-pyrrolidin-1-yl)-1,3-dihydroindol-2-one]",< 10
18,"COc1ccc(S(=O)(=O)N2C(=O)C(c3cc(CN4CCCC4)ccc3OC)(N3CCC[C@H]3c3ncon3)c3cc(Cl)ccc32)cc1 (stereo partly drawn) [Example 210, 5-Chloro-1-(4-methoxybenzenesulfonyl)-3-(2-methoxy-5-pyrrolidin-1-ylmethylphenyl)-3-((S)-2-[1,2,4]oxadiazol-3-yl-pyrrolidin-1-yl)-1,3-dihydroindol-2-one]",< 10
